The NIST ThermoML archive (doi:10.1016/j.tca.2019.178383)

How the values were obtained:
[1] = for surface tension liquid-gas: Maximal bubble pressure; for mass density: 100 kPa, Liquid, Vibrating tube method
[2] = xn = mol fraction of the nth substance listed; settings: x2 = 0; for surface tension liquid-gas: Maximal bubble pressure; for mass density: 100 kPa, Liquid, Vibrating tube method

CCn1cc[n+](CCOC)c1.O=S(=O)([O-])C(F)(F)F
[1]
Settings	mass density [kg/m3]	surface tension liquid-gas [mN/m]
288.15 K	1348.94	36.3
293.15 K	1344.66	36.1
298.15 K	1340.41	35.8
303.15 K	1336.17	35.5
308.15 K	1331.96	35.3
313.15 K	1327.77	35.1
318.15 K	1323.6	34.9

CCO [ethanol]
[1]
Settings	mass density [kg/m3]	surface tension liquid-gas [mN/m]
288.15 K	794.308	21.9
293.15 K	790.041	21.4
298.15 K	785.746	20.9
303.15 K	781.43	20.5
308.15 K	777.078	20
313.15 K	772.688	19.5
318.15 K	768.257	19

CCO [ethanol] + CCn1cc[n+](CCOC)c1.O=S(=O)([O-])C(F)(F)F
[2]
Settings	mass density [kg/m3]	surface tension liquid-gas [mN/m]
288.15 K	794.308	21.9
293.15 K	790.041	21.4
298.15 K	785.746	20.9
303.15 K	781.43	20.5
308.15 K	777.078	20
313.15 K	772.688	19.5
318.15 K	768.257	19

CCCO [propan-1-ol]
[1]
Settings	mass density [kg/m3]	surface tension liquid-gas [mN/m]
288.15 K	807.507	22.9
293.15 K	803.519	22.5
298.15 K	799.514	22.1
303.15 K	795.48	21.8
308.15 K	791.416	21.4
313.15 K	787.306	21
318.15 K	783.149	20.6

CCCO [propan-1-ol] + CCn1cc[n+](CCOC)c1.O=S(=O)([O-])C(F)(F)F
[2]
Settings	mass density [kg/m3]	surface tension liquid-gas [mN/m]
288.15 K	807.507	22.9
293.15 K	803.519	22.5
298.15 K	799.514	22.1
303.15 K	795.48	21.8
308.15 K	791.416	21.4
313.15 K	787.306	21
318.15 K	783.149	20.6

CC(C)O [propan-2-ol]
[1]
Settings	mass density [kg/m3]	surface tension liquid-gas [mN/m]
288.15 K	789.224	20.6
293.15 K	785.088	20.2
298.15 K	780.887	19.8
303.15 K	776.617	19.5
308.15 K	772.266	19.1
313.15 K	767.829	18.7
318.15 K	763.293	18.4

CC(C)O [propan-2-ol] + CCn1cc[n+](CCOC)c1.O=S(=O)([O-])C(F)(F)F
[2]
Settings	mass density [kg/m3]	surface tension liquid-gas [mN/m]
288.15 K	789.224	20.6
293.15 K	785.088	20.2
298.15 K	780.887	19.8
303.15 K	776.617	19.5
308.15 K	772.266	19.1
313.15 K	767.829	18.7
318.15 K	763.293	18.4
